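Method: 48-hour compound exposure of cells in 96-well plates, five concentrations, linear interpolation of endpoints. GI50: concentration for 50% inhibition of growth. Definition used: TGI = concentration required for complete inhibition of growth.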
Test system: MDA-MB-468 breast
Assay: NCI anticancer screen, dose series, 48 h

SMILES | GI50 | TGI
COc1ccc(C2CC(n3nnnc3-c3ccccc3)=NN2)cc1 (stereo not drawn) | 3980 nM | 47600 nM
CCN(CCNc1ccc(C)c2sc3ccccc3c(=O)c12)CC(C)(C)O | 1740 nM | 5030 nM
CCCCCCN(CCCCCC)CC(O)c1ccc2c3c(cccc13)CC2 (stereo not drawn) | 3430 nM | 14400 nM
CCn1c2ccc(/C=N/OCCCN(C)C)cc2c2cc(/C=N/OCCCN(C)C)ccc21 | 1380 nM | 3050 nM
CN(C)C(=O)O[C@@H]1CN[C@@H](C#Cc2cc3ncnc(Nc4ccc(OCc5cccc(F)c5)c(Cl)c4)c3s2)C1 | 1740 nM | 12700 nM
CC(=O)Nc1ccc(NC(=O)Nc2cccc(-c3nc(-c4ccc(NC(=O)c5cccs5)cc4Cl)no3)c2)cc1C(F)(F)F | 449 nM | 1730 nM
C/C(=N\NC(N)=S)c1nc2ccc(Cl)cc2[nH]1 | 1970 nM | 19100 nM
CC1=C2C(=O)[C@](C)(CO)C=C2C(=O)[C@](C)(O)C12CC2 | 1520 nM | 3160 nM
CSc1ccc(/C=C2\C=C(CC(=O)NCc3ccc(C(=O)c4ccccc4)cc3)c3cc(F)ccc32)cc1 | 19.9 nM | 7400 nM
COC(=O)CCC1=C(C)/C(=C/c2[nH]c(-c3ccc[nH]3)cc2OC)N=C1C | 1140 nM | 3180 nM
Cn1cc(CNCC2CCN(c3ncc(C(=O)NO)cn3)CC2)c2ccccc21 | < 10 nM | 476 nM
COc1ccc(-c2cn[nH]c2-c2cc(OC)c3c(c2)OCCO3)cc1 | 115 nM | 2760 nM
COC(=O)CCCCCN=Cc1c(O)c(O)c(C(C)C)c2cc(C)c(-c3c(C)cc4c(C(C)C)c(O)c(O)c(C=NCCCCCC(=O)OC)c4c3O)c(O)c12 | 1970 nM | 12900 nM
Cc1cc(-c2nnc3n2CCCCC3)c(C)n1-c1ccc(Cl)c(Cl)c1 | 2660 nM | 14000 nM
COc1cc(Cn2c(-c3nonc3N)nc3ccccc32)ccc1C | 228 nM | –
Cc1cc(N/N=C/c2nc(-c3ccc(Cl)cc3)oc2C)c2cc(Cl)ccc2n1 | 1780 nM | 3550 nM

SMILES | GI50 | TGI
CCC(c1cccc(O)c1)C(CC)c1cccc(O)c1 (stereo not drawn) | 28 nM | 4370 nM
COc1ccc(CN2c3ccccc3CCc3ccccc32)cc1F | 399 nM | > 100000 nM
O=C1CC(=O)OC(c2ccc([N+](=O)[O-])cc2)O1 | 1670 nM | 3480 nM
O=C1CCCN1CC#CCN1CCCC1 | > 100000 nM | > 100000 nM
CCC(C)[C@H]1OC(=O)[C@H](C(C)C)N(C)C(=O)[C@@H](C(C)C)OC(=O)[C@H](C(C)C)N(C)C(=O)[C@@H](C(C)CC)OC(=O)[C@H](C(C)C)N(C)C1=O (stereo partly drawn) | 440 nM | 1350 nM
CC(C)[C@H]1C(=O)N[C@@H](CCCN=C(N)N)C(=O)NCC(=O)N[C@@H](CC(=O)O)C(=O)N[C@H](Cc2ccccc2)C(=O)N1C | 403 nM | 2180 nM
COc1ccc(C(=O)N2c3ccccc3Sc3ccccc32)c(C(F)(F)F)c1 | 364 nM | 41500 nM
CNC(=O)c1cc(-n2ccc3cc(NC(=O)Nc4ccc(N5CCOCC5)c(C(F)(F)F)c4)ccc32)ccn1 | 12800 nM | > 33300 nM
Cc1c2ccc(N(C)c3ccnc(Nc4cccc(S(N)(=O)=O)c4)n3)cc2nn1C | 8210 nM | > 23500 nM
COc1cc2nc(-c3ccc(C(F)(F)F)cc3)cc(OCCCN3CCCCC3)c2cc1OC | 1030 nM | 3290 nM
Cc1ccc(NC(=O)Cn2c(Br)nc3c2c(=O)n(C)c(=O)n3C)cc1 | 10100 nM | 23200 nM
CCN(CC)CCCC(C)Nc1c2ccc(C)cc2nc2ccc(OC)cc12 (stereo not drawn) | 1280 nM | 2840 nM
C=C(C)C(=O)O[C@H]1C[C@@]2(C)OC(=CC2=O)/C(C)=C\[C@H]2OC(=O)C(=C)[C@H]12 | 622 nM | 1560 nM
N#C[C@@H]1C(n2ccc(N)nc2=O)O[C@H](CO)[C@H]1O (stereo partly drawn) | > 73100 nM | > 100000 nM
NC(=O)c1ccc(C2C3=C(CCCC3=O)OC3=C2C(=O)c2ccccc2C3=O)cc1 (stereo not drawn) | 201 nM | 649 nM
COc1cc(S(C)(=O)=O)ccc1Nc1nc2ccc(-c3ccc(NC(=O)[C@H](C)c4ccc(F)cc4)cc3)cn2n1 | 68600 nM | > 100000 nM

From PubChem BioAssay (NCI)
